Measured values taken from ChEMBL document CHEMBL1201862, “PubChem BioAssay data set” (2004).
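Compound exposure: 48 hours, 5 concentrations, 96-well plates. GI50 = concentration required for 50% inhibition of growth.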 Calls of active or inactive are those of the source. No stated cut-off is given here; in the data, active = GI50 up to about 1.1 µM and inactive = higher.

How the values were obtained:
Test in all cases: inhibition of tumour cell growth, NCI panel, 48 h
A498 = tested on: A498
CCRF-CEM = tested on: CCRF-CEM
COLO 205 = tested on: COLO 205
HL-60 = tested on: HL-60
HT-29 = tested on: HT-29
K562 = tested on: K562
LOX IMVI = tested on: LOX IMVI
NCI-H23 = tested on: NCI-H23
NCI/ADR-RES = tested on: NCI/ADR-RES
OVCAR-8 = tested on: OVCAR-8
RXF 393 = tested on: RXF 393
SF-539 = tested on: SF-539
SK-MEL-2 = tested on: SK-MEL-2
SK-MEL-5 = tested on: SK-MEL-5
SW-620 = tested on: SW-620
UACC-257 = tested on: UACC-257
UACC-62 = tested on: UACC-62
ACHN = tested on: ACHN
M14 = tested on: M14
TK-10 = tested on: TK-10

COC(=O)[C@]1(c2ccc(N(C)C)cc2OC)C[C@@H]2CCCN(CCc3c1[nH]c1ccccc31)C2
GI50 (A498): 19 µM (inactive)
GI50 (CCRF-CEM): 25 µM (inactive)
GI50 (COLO 205): 13.8 µM (inactive)
GI50 (HL-60): 11.7 µM (inactive)
GI50 (HT-29): 15 µM (inactive)
GI50 (K562): 17.3 µM (inactive)
GI50 (LOX IMVI): > 43.7 µM (inactive)
GI50 (NCI-H23): 18.9 µM (inactive)
GI50 (NCI/ADR-RES): 18.8 µM (inactive)
GI50 (OVCAR-8): 24.9 µM (inactive)
GI50 (RXF 393): 19.8 µM (inactive)
GI50 (SF-539): 20.5 µM (inactive)
GI50 (SK-MEL-2): 20.3 µM (inactive)
GI50 (SK-MEL-5): 17.2 µM (inactive)
GI50 (SW-620): 40.3 µM (inactive)
GI50 (UACC-257): 21 µM (inactive)
GI50 (UACC-62): 18 µM (inactive)

CNC(=O)N(CCC#N)CCN(C(=O)NC)c1ccccc1
GI50 (A498): > 100 µM (inactive)
GI50 (ACHN): > 100 µM (inactive)
GI50 (CCRF-CEM): > 100 µM (inactive)
GI50 (COLO 205): > 100 µM (inactive)
GI50 (HT-29): > 100 µM (inactive)
GI50 (K562): > 100 µM (inactive)
GI50 (LOX IMVI): > 100 µM (inactive)
GI50 (M14): > 100 µM (inactive)
GI50 (NCI-H23): > 100 µM (inactive)
GI50 (NCI/ADR-RES): > 100 µM (inactive)
GI50 (OVCAR-8): > 100 µM (inactive)
GI50 (RXF 393): > 100 µM (inactive)
GI50 (SF-539): > 100 µM (inactive)
GI50 (SK-MEL-2): > 100 µM (inactive)
GI50 (SK-MEL-5): > 100 µM (inactive)
GI50 (SW-620): > 100 µM (inactive)
GI50 (TK-10): > 100 µM (inactive)
GI50 (UACC-257): > 100 µM (inactive)
GI50 (UACC-62): > 100 µM (inactive)

O=C1C[C@@]23CCC4(CC2CCC[C@H]3O1)OCCO4 (some centres not stated)
GI50 (A498): > 100 µM (inactive)
GI50 (ACHN): > 100 µM (inactive)
GI50 (COLO 205): > 100 µM (inactive)
GI50 (HL-60): > 100 µM (inactive)
GI50 (HT-29): > 100 µM (inactive)
GI50 (K562): > 100 µM (inactive)
GI50 (LOX IMVI): > 100 µM (inactive)
GI50 (M14): > 100 µM (inactive)
GI50 (NCI-H23): > 100 µM (inactive)
GI50 (NCI/ADR-RES): > 100 µM (inactive)
GI50 (OVCAR-8): > 100 µM (inactive)
GI50 (RXF 393): > 100 µM (inactive)
GI50 (SF-539): > 100 µM (inactive)
GI50 (SK-MEL-2): > 100 µM (inactive)
GI50 (SK-MEL-5): > 100 µM (inactive)
GI50 (SW-620): > 100 µM (inactive)
GI50 (UACC-257): > 100 µM (inactive)
GI50 (UACC-62): > 100 µM (inactive)

Cc1ccccc1CN1CC2=C(CCN(Cc3ccccc3)C2=O)N2CCN=C12
GI50 (A498): 13.1 µM (inactive)
GI50 (ACHN): 6.61 µM (inactive)
GI50 (COLO 205): 1.86 µM (inactive)
GI50 (HL-60): 3.78 µM (inactive)
GI50 (HT-29): 5.31 µM (inactive)
GI50 (K562): 2.96 µM (inactive)
GI50 (LOX IMVI): 3.49 µM (inactive)
GI50 (M14): 6.4 µM (inactive)
GI50 (NCI-H23): 4.62 µM (inactive)
GI50 (NCI/ADR-RES): 4.09 µM (inactive)
GI50 (OVCAR-8): 4.76 µM (inactive)
GI50 (RXF 393): 54 µM (inactive)
GI50 (SF-539): 52.4 µM (inactive)
GI50 (SK-MEL-2): 4.81 µM (inactive)
GI50 (SK-MEL-5): 2.63 µM (inactive)
GI50 (SW-620): 4.5 µM (inactive)
GI50 (TK-10): 7.35 µM (inactive)
GI50 (UACC-257): 3.5 µM (inactive)
GI50 (UACC-62): 11.1 µM (inactive)

CN1CCCOC(c2ccc([N+](=O)[O-])cc2)O1 (configuration not stated)
GI50 (A498): > 100 µM (inactive)
GI50 (ACHN): > 100 µM (inactive)
GI50 (CCRF-CEM): > 100 µM (inactive)
GI50 (COLO 205): > 100 µM (inactive)
GI50 (HT-29): > 100 µM (inactive)
GI50 (K562): > 100 µM (inactive)
GI50 (LOX IMVI): > 100 µM (inactive)
GI50 (M14): > 100 µM (inactive)
GI50 (NCI-H23): > 100 µM (inactive)
GI50 (NCI/ADR-RES): > 100 µM (inactive)
GI50 (OVCAR-8): > 100 µM (inactive)
GI50 (RXF 393): > 100 µM (inactive)
GI50 (SF-539): > 100 µM (inactive)
GI50 (SK-MEL-2): > 100 µM (inactive)
GI50 (SK-MEL-5): > 100 µM (inactive)
GI50 (SW-620): > 100 µM (inactive)
GI50 (TK-10): > 100 µM (inactive)
GI50 (UACC-257): > 100 µM (inactive)
GI50 (UACC-62): > 100 µM (inactive)

O=C(/C=C/c1ccccc1O)/C=C/c1ccccc1O
GI50 (A498): 1.82 µM (inactive)
GI50 (ACHN): 1.8 µM (inactive)
GI50 (CCRF-CEM): 0.305 µM (active)
GI50 (COLO 205): 1.73 µM (inactive)
GI50 (HL-60): 2.9 µM (inactive)
GI50 (HT-29): 1.92 µM (inactive)
GI50 (K562): 0.611 µM (active)
GI50 (LOX IMVI): 0.252 µM (active)
GI50 (M14): 1.71 µM (inactive)
GI50 (NCI-H23): 1.53 µM (inactive)
GI50 (NCI/ADR-RES): 2.14 µM (inactive)
GI50 (OVCAR-8): 2.26 µM (inactive)
GI50 (SF-539): 1.55 µM (inactive)
GI50 (SK-MEL-2): 9.25 µM (inactive)
GI50 (SK-MEL-5): 1.37 µM (inactive)
GI50 (SW-620): 0.966 µM (active)
GI50 (TK-10): 1.21 µM (inactive)
GI50 (UACC-257): 4.43 µM (inactive)
GI50 (UACC-62): 1.67 µM (inactive)

O=C(Nc1ccccc1)N1CC(CN2CCN(c3ccccc3)CC2)OC1=O (configuration not stated)
GI50 (A498): > 100 µM (inactive)
GI50 (ACHN): > 100 µM (inactive)
GI50 (CCRF-CEM): > 100 µM (inactive)
GI50 (COLO 205): > 100 µM (inactive)
GI50 (HL-60): > 100 µM (inactive)
GI50 (HT-29): > 100 µM (inactive)
GI50 (K562): > 100 µM (inactive)
GI50 (LOX IMVI): > 100 µM (inactive)
GI50 (M14): > 100 µM (inactive)
GI50 (NCI-H23): > 100 µM (inactive)
GI50 (NCI/ADR-RES): > 100 µM (inactive)
GI50 (RXF 393): > 100 µM (inactive)
GI50 (SK-MEL-2): > 100 µM (inactive)
GI50 (SK-MEL-5): > 100 µM (inactive)
GI50 (SW-620): > 100 µM (inactive)
GI50 (TK-10): > 100 µM (inactive)
GI50 (UACC-257): > 100 µM (inactive)
GI50 (UACC-62): > 100 µM (inactive)

O=C(O)CNCCc1ccccc1
GI50 (A498): > 100 µM (inactive)
GI50 (ACHN): > 100 µM (inactive)
GI50 (CCRF-CEM): > 100 µM (inactive)
GI50 (COLO 205): > 100 µM (inactive)
GI50 (HL-60): > 100 µM (inactive)
GI50 (HT-29): > 100 µM (inactive)
GI50 (K562): > 100 µM (inactive)
GI50 (LOX IMVI): > 100 µM (inactive)
GI50 (M14): > 100 µM (inactive)
GI50 (NCI-H23): > 100 µM (inactive)
GI50 (NCI/ADR-RES): > 100 µM (inactive)
GI50 (OVCAR-8): > 100 µM (inactive)
GI50 (RXF 393): > 100 µM (inactive)
GI50 (SK-MEL-2): > 100 µM (inactive)
GI50 (SK-MEL-5): > 100 µM (inactive)
GI50 (SW-620): > 100 µM (inactive)
GI50 (TK-10): > 100 µM (inactive)
GI50 (UACC-62): > 100 µM (inactive)
